Assay results taken from PMC10428205, “Cytotoxicity of Ruthenium(II) Arene Complexes Containing Functionalized Ferrocenyl β-Diketonate Ligands” (Organometallics, 2023).

Tests used:
[1] = Hydrophobicity, octanol-water shake-flask; assay type: physicochemical
Protocol: curves to give an average concentration for shaken samples ([C]final). The concentration of an unshaken sample
of stock solution was determined to give [C]initial. The partition coefficient (LogP) was determined with by Eqn1. […]
All assays were conducted in triplicate.

ARPE-19 = test: 96 h MTT chemosensitivity assay, normal cells; assay type: cell-based, human; details: normal retinal epithelial cells, ± SD, read-out: IC50 against ARPE-19
Protocol: LogP = Log ( [C]final ) Eqn1
96 h Chemosensitivity Studies
In vitro chemosensitivity tests were performed at both the University of Huddersfield and the Institute of Cancer Therapeutics, Bradford, in a sterile Class II Biological Safety Cabinet fitted with a HEPA filtered laminar airflow.
Cellular assays were conducted against human pancreatic carcinoma (MIA PaCa-2), human colorectal carcinoma p53-wildtype (HCT116 p53+/+), and human non-cancerous epithelial retinal cells (ARPE-19). The ARPE-19 cells were obtained from the American Type Culture Collection and provided by the University of Huddersfield. All cell lines were routinely maintained as monolayer cultures in appropriate complete medium and maintained in either T-25 or T-75 flasks at 37 °C and 5% CO2. MIA PaCa-2 and ARPE-19 cells were cultured in high glucose DMEM-F12 medium containing 10% foetal calf serum, and HCT116 p53+/+ was cultured in RPMI 1640 supplemented with 10% foetal calf serum. All medium was supplemented with sodium pyruvate (1 mM) and L-glutamine (2 mM), and prior to chemosensitivity studies, cell monolayers were passaged using Trypsin-EDTA and diluted to a concentration of 1 x 10^4 cells/mL. All assays were conducted using 96-well plates, in which […] of the 1 x 10^4 cells/mL cell suspension was added to each well and incubated for 24 h at 37 °C and 5% CO2. […] After mixing well, the absorbance of each well was measured at 540 nm using a ThermoFisher Multiskan FC spectrophotometer microplate reader. Using the blank and 100% cell controls, the % cell viability was determined [(abs. of compound containing wells – abs. media wells)/(abs. 100% cell suspension well control)] and from this the % cell death (100%- % cell viability) was calculated. On a logarithmic scale, the percentage cell death was plotted against the concentration of compound, and from this the half maximal inhibitory concentration (IC50) value was determined. […]

MIA PaCa-2 = test: Whole cell uptake by ICP-MS; assay type: cell-based, human; details: MIA PaCa-2, 10 μM, 48 h; for Whole cell uptake of Fe: ICP-MS
Protocol: Cellular assays were conducted against human pancreatic carcinoma (MIA PaCa-2), human colorectal carcinoma p53-wildtype (HCT116 p53+/+), and human non-cancerous epithelial retinal cells (ARPE-19). The ARPE-19 cells were obtained from the American Type Culture Collection and provided by the University of Huddersfield. All cell lines were routinely maintained as monolayer cultures in appropriate complete medium and maintained in either T-25 or T-75 flasks at 37 °C and 5% CO2. MIA PaCa-2 and ARPE-19 cells were cultured in high glucose DMEM-F12 medium containing 10% foetal calf serum, and HCT116 p53+/+ was cultured in RPMI 1640 supplemented with […]
10% foetal calf serum. […]
Cell uptake assays were conducted using MIA PaCa-2 cells and these were maintained as described above. All assays were conducted in 6-well plates and cell concentrations of 1 x 10^5 cells/ well in 2 mL of complete cell media. These cell suspensions were added to the wells and incubated at 37°C and 5% CO2 for 24 h. The media was then removed, and 2 mL of media/copper compound was added to each well. For each compound, a concentration of 10 µM of ligands L1, L2, L4, L7 or complexes C1, C2, C4, C7 were used. The cells were incubated with the complexes for 48 h, before removing and discarding the media. The cell monolayers were then individually washed with PBS (3 x 1 mL) and all waste discarded. 0.25% Trypsin-EDTA (0.5 mL) was then added until the cells were removed from the surface of the wells and then diluted with media (1.5 mL). The contents of each well were transferred to separate Falcon tubes and centrifuged at 1500 rpm for 5 min. The supernatant was removed, the cell pellets were resuspended in PBS (1 mL) and centrifuged again at 1500 rpm for 5 min (this was completed 3 times). On the final time, the cells were counted before the last centrifuge and then pelleted and store in the freezer for ICP-MS analysis. All assays were conducted in triplicate.
Samples were then taken up in Optima high purity nitric acid, diluted to 10 mL with 1mL rhodium internal standard and 9 mL 18.2 Ultrapure water. The elemental contents of the samples were determined using ICP-MS-QQQ Thermo TQ spectrometer. Measurement of iron mass 56 and ruthenium isotope mass 100 was conducted by comparing solutions of known concentration and intensities. A series of standard calibration curves allows the concentration of each element to be determined. The standards were prepared by weight using 1000 mg/kg reference solutions. Operating conditions: cooling flow rate, 14.0 L/min, auxiliary gas flow rate, 0.8 L/min; sampling Depth 5 mm, additional gas flow 75 %, spray chamber 2.7 degrees, nebulizer flow rate, 1.144 L/min pump speed 15 rpm, RF power of 1,550 W.
Analysis of cellula r DNA damage by the Comet assay […]

## [NH2][Pt]([NH2])([Cl])[Cl] [CDDP, cisplatin, reference compound]
[1]
  LogP: -2.20 ± 0.20
ARPE-19
  IC50: 6 ± 1 µM

## CC(O)=CC(=O)[c-]1cccc1.[Fe+2].c1cc[cH-]c1 [Complex L1]
MIA PaCa-2
  Whole cell uptake of Fe: 2661 ± 974 ng Fe/10^6 cells

## O=C(C=C(O)C(F)(F)F)[c-]1cccc1.[Fe+2].c1cc[cH-]c1 [Complex L7]
MIA PaCa-2
  increase in Fe uptake compared to the control: ca. 1.7 ×
  Whole cell uptake of Fe: 1536 ± 202 ng Fe/10^6 cells

## O=C(C=C(O)c1ccccc1)[c-]1cccc1.[Fe+2].c1cc[cH-]c1 [Complex L2]
MIA PaCa-2
  Whole cell uptake of Fe: 2524 ± 458 ng Fe/10^6 cells
